Values joined by “and” are separate entries in the source; they are usually repeats but may differ in a detail not shown here. Equal entries are not always repeated.

Here are results for 1 substance from US4914189A, “Synthetic GHRH analogs” (The Adminstrators of the Tulane Educational Fund, priority 1987, dated 1990).

Assay [1] concerns superfused pituitary cell system. The experiment in a line: In vitro GH release, superfused pituitary cell system. The assay is classed as cell-based, rat. As for the experimental part:
The compounds of the present invention were tested both in vitro in rat cell culture and in vivo in rats to determine GHRH activity. The protocols are as follows:
Twenty-four adult male or female Sprague-Dawley strain rats were decapitated for each experiment. After posterior lobes were removed, the anterior pituitaries were cut into small pieces and incubated in a Dubnoff incubator for 45 minutes at 37° C. in 10 ml. of oxygenated Medium 199 (GIBCO) containing 0.5% collagenase (Sigma Type 1), 0.25% bovine serum albumin (BSA) (Sigma RIA grade), and 5 μg./ml. Gentamicin Sulphate (Sigma). After this incubation, there were no apparent changes in the appearance of the tissue. However, the fragments could be easily dipsersed into single cells by repeated suction and expulsion from a Gilson Pipetman. After 30 to 60 Pipetman operations, the tissue fell apart; a second collagenase incubation was not usually necessary. The cell suspension was centrifuged at room temperature for 10 minutes at […]. The cell pellet was then resuspended in 1.0 ml. of medium. A small aliquot was diluted for counting the cells, and the rest or one suspension was divided into 2 equal volumes. Each volume (containing about 5× 10^6 cells, usually between 3.5 and 7.0×10^6) was mixed with 0.5 ml. Sephadex G-15 which had been equilibrated with previously oxygenated medium. The mixture of pituitary cells and Sephadex was transferred into 2 chambers of the superfusion apparatus and perfused with the medium. […]
ACTH radioimmunoassays were performed on 100 μl aliquots of undiluted superfusion medium essentially as described elsewhere (14); however, the separation of bound and free ACTH was accomplished by a polyethylene glycol facilitated second antibody method. Rat GH was measured in aliquots of undiluted or diluted superfusates to determine either basal or stimulated secretion. […]

For a further assay, the system named is release of pituitary GH. The assay is described as follows: In vivo release of pituitary GH after one single i.v. injection in female rats. The note with it: for Relative Potency (based on the effect of hpGHRH at the actual time) / Responses in plasma GH in ng GH/ml: 1.0 ug/(female) rat i.v.; for Absolute Potency (based on the average value of the four samples at -1 min.): average GH level at -1 min. 63.5 ng GH/ml plasma. On the set-up: species or system rat. As for the experimental part:
Adult female rats were used and were anesthetized with pentobarbital (6 mg/100 g, b.w.), injected i/p. 20 minutes after the injection of pentobarbital; blood samples were taken from the jugular vein (pretreated level) and immediately thereafter hpGH-RH^1-29 (as a control) or GH-RH^1-29 analogs were injected i.v. Blood samples were taken from the jugular vein 5, 15, 60 minutes after the injection. The blood samples were centrifuged, plasma was removed and the GH level was measured by RIA.
In vivo Effects of synthetic GHRH analogs on the release
of pituitary GH following one single i.v. injection of 1.0

In a further assay the test system is release of GH. The assay is described as follows: In vivo release of GH in male testosterone primed rats, 4-point assay method. On the set-up: species or system rat. The note with it: i.v., individual values. As for the experimental part: In vivo effect of synthetic GHRH analogs on the release of
GH in male testosterone primed rats. Results were
calculated by the 4-point assay method.
Doses injected are in μg/100 g. b.w., i.v.

Take “GH-RH^1-29: standard/control: fragment of the first 29 residues of human growth hormone releasing factor, amide”: the “Released GH Level Average” value in assay [1] (peptides administered for 3 minutes at 10M^-9 Concentration) is 40.00 ng/mL. Also, the “Released GH Level” value in assay [1] (peptides administered for 3 minutes at 10M^-9 Concentration, individual values) is 62.50 ng/mL and 42.50 ng/mL and 20.50 ng/mL and 34.50 ng/mL. This substance returned a Potency % in assay [1] (relative to GH-RH^1-29 standard, 3 minutes at 10M^-9 Concentration) of 100%. In addition, the “Relative Potency (based on the effect of hpGHRH at the actual time)” value in the assay on release of pituitary GH (time +5 min), with release of pituitary GH (time +15 min), in the assay with release of pituitary GH (time +60 min) and with release of pituitary GH (time -1 min (pretreated level)) was 100% each time. For the same substance, the “Responses in plasma GH in ng GH/ml” value with release of pituitary GH (time +5 min) stood at 248 ng/mL; in the assay with release of pituitary GH (time +15 min), 137 ng/mL; with release of pituitary GH (time +60 min), 29 ng/mL; in the assay with release of pituitary GH (time -1 min (pretreated level)), 66 ng/mL. Moreover, the “Absolute Potency (based on the average value of the four samples at -1 min.)” value with release of pituitary GH (time +5 min) is recorded as 390%; in the assay on release of pituitary GH (time +15 min), 215%; with release of pituitary GH (time +60 min), 45%; with release of pituitary GH (time -1 min (pretreated level)) it was 103%. In addition, the “plasma Gh level” value in the assay with release of GH (5 minutes after injection, dose 0.05 μg/100 g. b.w.) is 160 ng·mL and 540 ng·mL and 208 ng·mL and 191 ng·mL and 450 ng·mL and 286 ng·mL and 397 ng·mL; in the assay with release of GH (5 minutes after injection, dose 0.2 μg/100 g. b.w.), 370 ng·mL and 620 ng·mL and 540 ng·mL and 610 ng·mL and 870 ng·mL and 410 ng·mL and 560 ng·mL; in the assay on release of GH (15 minutes after injection, dose 0.05 μg/100 g. b.w.), 65 ng·mL and 241 ng·mL and 97 ng·mL and 70 ng·mL and 161 ng·mL and 145 ng·mL and 149 ng·mL; in the assay with release of GH (15 minutes after injection, dose 0.2 μg/100 g. b.w.) it was 112 ng·mL and 280 ng·mL and 199 ng·mL and 261 ng·mL and 510 ng·mL and 161 ng·mL and 207 ng·mL.
